Assay results from US9302999B2, “Substituted triazoles as herbicides” (E. I. DU PONT DE NEMOURS AND COMPANY, priority 2012, dated 2016).

Legend:
Type in all cases: in vivo
[1] = system: wheat (TRZAW, Triticum aestivum); assay: Test H post-emergence, alone and in combination: wheat
Text: (§1) Seeds of plant species selected from wheat (TRZAW, Triticum aestivum), barley (HORBW, Hordeum vulgare), Kochia (KCHSC, Kochia caoparia) blackgrass (ALOMY, Alopecurus myosuroides), canarygrass (PHAMI, Phalaris minor), Italian ryegrass (LOLMU, Lolium multiflorum) common lambsquarter (CHEAL, Chenopodium album), pigweed (AMARE, Amaranthus retroflexus), Common Chickweed (STEME, Stellaria media), Russian thistle (SASKR, Salsola iberica), Wild Buckwheat (POLCO, Polygonum convolvulus), Catchweed Bedstraw (GALAP, Galium aparine), Mustard (SINAR, Sinapisar arvensis), Henbit Deadnettle (LAMAM, Lamium amplexicaule), Wild Radish (RAPRA, Raphanus raphanistrum), Field Poppy (PAPRH, Papaver rhoeas), Field Violet (VIOAR, Viola arvennsis), Scentless Chamomile (MATIN Matricaria inodora) were planted into soil and treated post-emergence with test chemicals formulated in a non-phytotoxic solvent mixture. Plants were grown in a greenhouse using supplemental lighting to maintain a photoperiod of approximately 14 hours; daytime and nighttime temperatures were approximately 23°-29° and 16°-19° Celsius, respectively. Balanced fertilizer was applied through the watering system. Treated plants and controls were maintained in a greenhouse for 20 days, after which time all species were compared to controls and visually evaluated. Plant response ratings were calculated as the mean of three replicates (unless otherwise indicated), are summarized in Table G, and are based on a scale of 0 to 100 where 0 is no effect and 100 is complete control. A dash (-) response means no test result.

[2] = system: barley (HORBW, Hordeum vulgare); assay: Test H post-emergence, alone and in combination: barley
Text: as §1

[3] = system: Kochia (KCHSC, Kochia caoparia); assay: Test H post-emergence, alone and in combination: Kochia
Text: as §1

[4] = system: blackgrass (ALOMY, Alopecurus myosuroides); assay: Test H post-emergence, alone and in combination: blackgrass
Text: as §1

[5] = system: canarygrass (PHAMI, Phalaris minor); assay: Test H post-emergence, alone and in combination: canarygrass
Text: as §1

[6] = system: Italian ryegrass (LOLMU, Lolium multiflorum); assay: Test H post-emergence, alone and in combination: Italian ryegrass
Text: as §1

[7] = system: common lambsquarter (CHEAL, Chenopodium album); assay: Test H post-emergence, alone and in combination: common lambsquarter
Text: as §1

[8] = system: pigweed (AMARE, Amaranthus retroflexus); assay: Test H post-emergence, alone and in combination: pigweed
Text: as §1

[9] = system: Common Chickweed (STEME, Stellaria media); assay: Test H post-emergence, alone and in combination: Common Chickweed
Text: as §1

[10] = system: Russian thistle (SASKR, Salsola iberica); assay: Test H post-emergence, alone and in combination: Russian thistle
Text: as §1

[11] = system: Wild Buckwheat (POLCO, Polygonum convolvulus); assay: Test H post-emergence, alone and in combination: Wild Buckwheat
Text: as §1

[12] = system: Catchweed Bedstraw (GALAP, Galium aparine); assay: Test H post-emergence, alone and in combination: Catchweed Bedstraw
Text: as §1

[13] = system: Mustard (SINAR, Sinapisar arvensis); assay: Test H post-emergence, alone and in combination: Mustard
Text: as §1

[14] = system: Henbit Deadnettle (LAMAM, Lamium amplexicaule); assay: Test H post-emergence, alone and in combination: Henbit Deadnettle
Text: as §1

[15] = system: Wild Radish (RAPRA, Raphanus raphanistrum); assay: Test H post-emergence, alone and in combination: Wild Radish
Text: as §1

[16] = system: Field Poppy (PAPRH, Papaver rhoeas); assay: Test H post-emergence, alone and in combination: Field Poppy
Text: as §1

[17] = system: Field Violet (VIOAR, Viola arvennsis); assay: Test H post-emergence, alone and in combination: Field Violet
Text: as §1

[18] = system: Scentless Chamomile (MATIN Matricaria inodora); assay: Test H post-emergence, alone and in combination: Scentless Chamomile
Text: as §1

[19] = system: japonica rice (ORYSP, Oryza sativa); assay: Test G paddy, alone and in combination: japonica rice; settings: Rate 125 g/ha; evaluated after 14 days
Method: (§2) Seeds of smallflower umbrella sedge (CYPDI, Cyperus difformis) and ducksalad (HETLI, Heteranthera limosa) were sown on the soil surface in two separate quadrants of 11 cm tubs filled with steam pasteurized Tama soil. Simultaneously, plantings of barnyardgrass (ECHCG, Echinochloa crus-galli) and japonica rice (ORYSP, Oryza sativa) were established in separate “plug” flats. Plants were grown in a greenhouse using supplemental lighting to maintain a photoperiod of approximately 16 h; daytime and nighttime temperatures were approximately 27-30° C. and 19-22° C., respectively. After 8 days, barnyardgrass plants were transplanted to one of the remaining quadrants of the tub, and the water level was adjusted to a final depth of 3 cm. Herbicide application timing was targeted at the 2.0 to 2.5 leaf stage and the plants were treated with test chemicals formulated in a non-phytotoxic solvent. Treated plants and controls were maintained in a greenhouse for 14 days, after which time all species were compared to controls and visually evaluated. Plant response ratings are summarized in Tables G1 through G3, and are based on a scale of 0 to 100 where 0 is no effect and 100 is complete control. A dash (-) response means no test result.

[20] = system: barnyardgrass (ECHCG, Echinochloa crus-galli); assay: Test G paddy, alone and in combination: barnyardgrass; settings: Rate 125 g/ha; evaluated after 14 days
Method: as §2

[21] = system: smallflower umbrella sedge (CYPDI, Cyperus difformis); assay: Test G paddy, alone and in combination: smallflower umbrella sedge; settings: Rate 125 g/ha; evaluated after 14 days
Method: as §2

[22] = system: ducksalad (HETLI, Heteranthera limosa); assay: Test G paddy, alone and in combination: ducksalad; settings: Rate 125 g/ha; evaluated after 14 days
Method: as §2

COC(=O)c1sccc1S(=O)(=O)NC(=O)Nc1nc(C)nc(OC)n1 [b2c, thifensulfuron-methyl]
50: LOLMU plant response ([6]; Rate 16)
95: KCHSC plant response ([3]; Rate 31) | CHEAL plant response ([7]; Rate 62) | POLCO plant response ([11]; Rate 8) | POLCO plant response ([11]; Rate 16) | POLCO plant response ([11]; Rate 31) | POLCO plant response ([11]; Rate 62) | GALAP plant response ([12]; Rate 62) | SINAR plant response ([13]; Rate 62) | RAPRA plant response ([15]; Rate 8) | RAPRA plant response ([15]; Rate 62) | VIOAR plant response ([17]; Rate 62) | MATIN plant response ([18]; Rate 8)
90: PHAMI plant response ([5]; Rate 62) | LOLMU plant response ([6]; Rate 62) | GALAP plant response ([12]; Rate 16) | SINAR plant response ([13]; Rate 16) | MATIN plant response ([18]; Rate 16)
70: KCHSC plant response ([3]; Rate 8) | PHAMI plant response ([5]; Rate 31) | LOLMU plant response ([6]; Rate 31) | CHEAL plant response ([7]; Rate 16) | LAMAM plant response ([14]; Rate 16) | PAPRH plant response ([16]; Rate 8)
0: TRZAW plant response ([1]; Rate 8) | TRZAW plant response ([1]; Rate 16) | TRZAW plant response ([1]; Rate 31) | HORBW plant response ([2]; Rate 8)
20: LOLMU plant response ([6]; Rate 8)
45: ALOMY plant response ([4]; Rate 16)
65: ALOMY plant response ([4]; Rate 62)
5: TRZAW plant response ([1]; Rate 62) | HORBW plant response ([2]; Rate 16) | HORBW plant response ([2]; Rate 31) | HORBW plant response ([2]; Rate 62)
10: ALOMY plant response ([4]; Rate 8) | PHAMI plant response ([5]; Rate 8)
85: KCHSC plant response ([3]; Rate 16) | CHEAL plant response ([7]; Rate 8) | STEME plant response ([9]; Rate 8) | SINAR plant response ([13]; Rate 31) | VIOAR plant response ([17]; Rate 16)
60: ALOMY plant response ([4]; Rate 31) | PHAMI plant response ([5]; Rate 16) | LAMAM plant response ([14]; Rate 8)
100: KCHSC plant response ([3]; Rate 62) | CHEAL plant response ([7]; Rate 31) | AMARI plant response ([8]; Rate 8) | AMARI plant response ([8]; Rate 16) | AMARI plant response ([8]; Rate 31) | AMARI plant response ([8]; Rate 62) | STEME plant response ([9]; Rate 16) | STEME plant response ([9]; Rate 31) | STEME plant response ([9]; Rate 62) | SASKR plant response ([10]; Rate 8) | SASKR plant response ([10]; Rate 16) | SASKR plant response ([10]; Rate 31) | SASKR plant response ([10]; Rate 62) | RAPRA plant response ([15]; Rate 31) | PAPRH plant response ([16]; Rate 31) | PAPRH plant response ([16]; Rate 62) | MATIN plant response ([18]; Rate 31) | MATIN plant response ([18]; Rate 62)
80: GALAP plant response ([12]; Rate 8) | SINAR plant response ([13]; Rate 8) | VIOAR plant response ([17]; Rate 8)
75: GALAP plant response ([12]; Rate 31) | LAMAM plant response ([14]; Rate 31) | LAMAM plant response ([14]; Rate 62) | RAPRA plant response ([15]; Rate 16) | PAPRH plant response ([16]; Rate 16) | VIOAR plant response ([17]; Rate 31)

COCCCn1c(-c2cccc(OC)c2)ncc(C(=O)C2=C(O)CCCC2=O)c1=O [b12a, 5-[(2-hydroxy-6-oxo-1-cyclohexen-1-yl)carbonyl]-2-(3-methoxyphenyl)-3-(3-methoxypropyl)-4(3H)-pyrimidinone]
35: ECHCG plant response rating (scale of 0 to 100) [20]
80: CYPDI plant response rating (scale of 0 to 100) [21] | HETLI plant response rating (scale of 0 to 100) [22]
5: ORYSP plant response rating (scale of 0 to 100) [19]
